Data: patent US20090311237A1, “Combination therapy using a soluble hyaluronidase and a bisphosphonate” (priority 2008, published 2009)
Where two headings read alike, the source gives them in different places.

Assay: Phase 1 Stage 1 clinical pharmacokinetics of SC ZA co-administered with rHuPH20
Format: in vivo, human
Settings: human, serum, sc; for AUC(0-t): AUC (0-48 h); for AUC(0-t) / Cmax / AUC(0-inf) / Tmax: ZA […] SC; for AUC(0-inf): read-out: AUC (0-inf); for Tmax: read-out: Tmax; for concentration at 0 h: 0 h post infusion; for concentration at 10 min: 10 min post infusion; for concentration at 0.5 h: 0.5 h post infusion; for concentration at 1 h: 1 h post infusion; for concentration at 2 h: 2 h post infusion; for concentration at 4 h: 4 h post infusion; for concentration at 6 h: 6 h post infusion; for concentration at 8 h: 8 h post infusion
Experimental: A pharmacokinetic study of zoledronic acid (ZA) co-administered with rHuPH20 in human subjects was conducted. The primary objective of the study was to determine the bioavailability of zoledronic acid dosed via subcutaneous (SC) co-administration with human recombinant hyaluronidase PH20 (rHuPH20). […] The patients were administered the prescribed dosage formulations as follows: Cohorts 1-5 were administered a single subcutaneous infusion in a dosage volume of 100 ml at a rate of 3 mL/min. […] The dosing solution is administered via needle or catheter into the SC space of the left anterior thigh (midway between the anterior iliac crest and the cephalad border of the patella). For cohorts 1-5, the dosing solutions were administered by a controlled rate infusion pump at approximately 3 mL/minute. […] The dosing solutions were administered by syringe push bolus injection. […] Serum concentration of ZA was determined using a qualified LC-MS-MS assay after derivatization with diazomethane (Zhu, L S et al. (2006) Rapid Commun. […] The assay range was from 2.0 to 400 ng/mL with a lower limit of quantitation (LLOQ) at 2.0 ng/mL. […] Non-compartmental analysis was used for derivation of primary and secondary pharmacokinetic (PK) parameters. […] Summary statistics (mean, standard deviation, and median) were calculated using JMP or Microsoft Excel.

[1] = Subj 21, inf 0.556 hr, PH20 24000 U
[2] = Subj 25, inf 0.549 hr, PH20 23736 U
[3] = Subj 31, inf 0.554 hr, PH20 23952 U
[4] = Subj 32, inf 0.556 hr, PH20 24000 U
[5] = Subj 51, inf 0.251 hr, PH20 6024 U
[6] = Subj 1, inf 0.554 hr, PH20 23928 U
[7] = Subj 8, inf 0.531 hr, PH20 22944 U
[8] = Subj 11, inf 0.554 hr, PH20 23928 U
[9] = Subj 16, inf 0.553 hr, PH20 23904 U
[10] = ZA 0.25 mg SC infusion + 24000 Units rHuPH20, individual subjects, read-out: Zoledronic Acid Concentration
[11] = ZA 0.25 mg SC infusion + 24000 Units rHuPH20, n=3, read-out: Mean Conc.
[12] = ZA 0.25 mg SC infusion + 24000 Units rHuPH20, n=3, read-out: Median Conc.
[13] = ZA 0.5 mg SC infusion + 24000 Units rHuPH20, individual subjects, read-out: Zoledronic Acid Concentration
[14] = ZA 0.5 mg SC infusion + 24000 Units rHuPH20, n=3, read-out: Mean Conc.
[15] = ZA 0.5 mg SC infusion + 24000 Units rHuPH20, n=3, read-out: Median Conc.

O=P(O)(O)C(O)(Cn1ccnc1)P(=O)(O)O [ZA, 1-hydroxy-2-(1H-imidazol-1-yl)ethylidene-1,1-bisphosphonic acid] gave an AUC(0-t) (Subj 18, inf […], PH20 23304 U) of 0.0698 µg·h/mL, an AUC(0-t) [1] of 0.0661 µg·h/mL and an AUC(0-t) [2] of 0.115 µg·h/mL. It also gave an AUC(0-t) (Subj 26, inf […], PH20 23088 U) of 0.15 µg·h/mL, an AUC(0-t) [3] of 0.234 µg·h/mL and an AUC(0-t) [4] of 0.277 µg·h/mL. It also gave an AUC(0-t) [5] of 0.471 µg·h/mL, an AUC(0-t) (Subj 77, inf […], PH20 6000 U) of 0.618 µg·h/mL and a Cmax [6] of 7.75 ng/mL. It also gave an AUC(0-inf) [6] of 0.0299 µg·h/mL, a Tmax [6] of 1.02 h and a Cmax [7] of 5.67 ng/mL. The AUC(0-inf) [7] was 0.0326 µg·h/mL, the Tmax [7] was 1.41 h and the Cmax [8] was 6.84 ng/mL. It also gave an AUC(0-inf) [8] of 0.0308 µg·h/mL, a Tmax [8] of 1.25 h and a Cmax [9] of 15.3 ng/mL. The AUC(0-inf) [9] was 0.0625 µg·h/mL, the Tmax [9] was 0.8 h and the Cmax (Subj 18, inf […], PH20 23304 U) was 17.1 ng/mL. The AUC(0-inf) (Subj 18, inf […], PH20 23304 U) was 0.0681 µg·h/mL, the Tmax (Subj 18, inf […], PH20 23304 U) was 1.29 h and the Cmax [1] was 14.2 ng/mL. For the same compound, the AUC(0-inf) [1] was 0.0643 µg·h/mL, the Tmax [1] was 1.31 h and the Cmax [2] was 30.1 ng/mL. For the same compound, the AUC(0-inf) [2] was 0.117 µg·h/mL, the Tmax [2] was 1.3 h and the Cmax (Subj 26, inf […], PH20 23088 U) was 33.4 ng/mL. It also gave an AUC(0-inf) (Subj 26, inf […], PH20 23088 U) of 0.153 µg·h/mL, a Tmax (Subj 26, inf […], PH20 23088 U) of 1.03 h and a Cmax [3] of 53 ng/mL. The AUC(0-inf) [3] was 0.239 µg·h/mL, the Tmax [3] was 1.54 h and the Cmax [4] was 58.7 ng/mL. The AUC(0-inf) [4] was 0.295 µg·h/mL, the Tmax [4] was 1.56 h and the Cmax [5] was 95.4 ng/mL. It also gave an AUC(0-inf) [5] of 0.508 µg·h/mL, a Tmax [5] of 0.52 h and a Cmax (Subj 77, inf […], PH20 6000 U) of 147 ng/mL. For the same compound, the AUC(0-inf) (Subj 77, inf […], PH20 6000 U) was 0.678 µg·h/mL, the Tmax (Subj 77, inf […], PH20 6000 U) was 0.75 h and the concentration at 0 h [10] was 4.5 ng/mL. For the same compound, the concentration at 0 h [11] was 4.74 ng/mL, the concentration at 0 h [12] was 4.69 ng/mL and the concentration at 10 min [10] was 7.43 ng/mL. For the same compound, the concentration at 10 min [11] was 5.76 ng/mL, the concentration at 10 min [12] was 4.97 ng/mL and the concentration at 0.5 h [10] was 7.75 ng/mL. It also gave a concentration at 0.5 h [11] of 6.39 ng/mL, a concentration at 0.5 h [12] of 6.25 ng/mL and a concentration at 1 h [10] of 7.25 ng/mL. The concentration at 1 h [11] was 6.51 ng/mL, the concentration at 1 h [12] was 6.6 ng/mL and the concentration at 2 h [10] was 5.42 ng/mL. The concentration at 2 h [11] was 5.06 ng/mL, the concentration at 2 h [12] was 5.42 ng/mL and the concentration at 4 h [10] was 2.56 ng/mL. For the same compound, the concentration at 4 h [11] was 3.02 ng/mL, the concentration at 4 h [12] was 3.06 ng/mL and the concentration at 6 h [10] was 1.2 ng/mL. The concentration at 6 h [11] was 1.52 ng/mL, the concentration at 6 h [12] was 1.35 ng/mL and the concentration at 8 h [10] was 0.56 ng/mL. For the same compound, the concentration at 8 h [11] was 0.82 ng/mL, the concentration at 8 h [12] was 0.79 ng/mL and the concentration at 0 h [13] was 10.8 ng/mL. The concentration at 0 h [14] was 11.8 ng/mL, the concentration at 0 h [15] was 11.1 ng/mL and the concentration at 10 min [13] was 15 ng/mL. It also gave a concentration at 10 min [14] of 15 ng/mL, a concentration at 10 min [15] of 15 ng/mL and a concentration at 0.5 h [13] of 13.8 ng/mL. The concentration at 0.5 h [14] was 14.4 ng/mL, the concentration at 0.5 h [15] was 13.8 ng/mL and the concentration at 1 h [13] was 14.1 ng/mL. The concentration at 1 h [14] was 14.3 ng/mL, the concentration at 1 h [15] was 14.1 ng/mL and the concentration at 2 h [13] was 11.1 ng/mL. The concentration at 2 h [14] was 11.1 ng/mL, the concentration at 2 h [15] was 11.1 ng/mL and the concentration at 4 h [13] was 5.27 ng/mL. It also gave a concentration at 4 h [14] of 5.72 ng/mL, a concentration at 4 h [15] of 5.87 ng/mL and a concentration at 6 h [13] of 2.5 ng/mL. For the same compound, the concentration at 6 h [14] was 2.69 ng/mL.
